Test results: patent US20100305068A1, “COMPOUNDS AND METHODS FOR MODULATING PROTEIN TRAFFICKING” (priority 2006, published 2010)
Read-outs that look alike come from different tables or passages of the source.

Tested on: pdr5 ypt1^ts cells
Assay: microbe, parasite or virus in culture
Type: cell-based, yeast
Details: 37° C.; for minimal effective concentration / optical density, ypt1-ts, 0.39 / optical density, ypt1-ts, 0.78 / optical density, ypt1-ts, 1.56 / optical density, ypt1-ts, 3.13 / optical density, ypt1-ts, 6.25 / optical density, ypt1-ts, 12.5 / optical density, ypt1-ts, 25: Table 2; for minimal effective concentration: lowest concentration tested giving growth above the 0 μM background, read-out: ypt1-ts MRC (minimal rescue concentration); for optical density, ypt1-ts, 0.39: 0.39 μM compound; for optical density, ypt1-ts, 0.39 / optical density, ypt1-ts, 0.78 / optical density, ypt1-ts, 1.56 / optical density, ypt1-ts, 3.13 / optical density, ypt1-ts, 6.25 / optical density, ypt1-ts, 12.5 / optical density, ypt1-ts, 25: background (0 μM) 0.058; for optical density, ypt1-ts, 0.78: 0.78 μM compound; for optical density, ypt1-ts, 1.56: 1.56 μM compound; for optical density, ypt1-ts, 3.13: 3.13 μM compound; for optical density, ypt1-ts, 6.25: 6.25 μM compound; for optical density, ypt1-ts, 12.5: 12.5 μM compound; for optical density, ypt1-ts, 25: 25 μM compound; for optical density, 3.13 uM / optical density, 12.5 uM / optical density, 50 uM: Table 3, background (0 uM) 0.077; for optical density, 3.13 uM: 3.13 uM compound; for optical density, 12.5 uM: 12.5 uM compound; for optical density, 50 uM: 50 uM compound
From the text: The activity of the compounds as modulators of protein trafficking may be measured in the assays described herein that evaluate the ability of a compound to rescue an impairment in protein trafficking. For example, the yeast mutant cell line ypt1^ts can be used to identify compounds that rescue cells from the lethal phenotype of a mutant YPT1 allele (see, e.g., Examples and Schmitt et al. (1988) Cell 53:635-47). The activity may be measured, for example, in a whole yeast cell assay using 384-well screening protocol and an optical density measurement.
The yeast mutant cell line ypt1^ts suppresses, in a temperature dependent fashion, the dominant-lethal phenotype of a mutant YPT1 allele (Schmitt et al. (1988) Cell 53:635-47). ypt1^ts cells grow normally at temperatures up to 30° C., but are growth arrested at 37° C. (Id.).
A library of compounds (“The Spectrum Collection”) obtained from Microsource Discovery Systems, Inc. (Gaylordsville, Conn.) was screened to assess the ability of individual compounds to restore growth of ypt1^ts cells. Screening was carried out using ypt1^ts cells containing a mutation in the pdr5 gene (resulting in inactivation of a membrane efflux pump). The effect of the compounds was measured in pdr5 ypt1^ts cells cultured at 37° C.

| Compound | minimal effective concentration (Saccharomyces cerevisiae) [µM] | optical density, ypt1-ts, 0.39 | optical density, ypt1-ts, 0.78 | optical density, ypt1-ts, 1.56 | optical density, ypt1-ts, 3.13 | optical density, ypt1-ts, 6.25 | optical density, ypt1-ts, 12.5 | optical density, ypt1-ts, 25 | optical density, 3.13 uM | optical density, 12.5 uM | optical density, 50 uM | minimal effective concentration [µM] |
| --- | --- | --- | --- | --- | --- | --- | --- | --- | --- | --- | --- | --- |
| CC(C)=CCOc1c2occc2cc2ccc(=O)oc12 [IMPERATORIN] | 12.5 | 0.084 | 0.064 | 0.066 | 0.073 | 0.082 | 0.147 | 0.244 |  |  |  |  |
| CC(C)c1ccc2c(c1)CCC1[C@](C)(CN)CCC[C@]21C.O=S(=O)(O)O (some centres unmarked) [18-AMINO ABIETA- 8,11,13- TRIENE SULFATE] |  |  |  |  |  |  |  |  | 0.055 | 0.06 | 0.378 |  |
| CCOC(=O)C1=C(C)NC(C)=C(C(=O)OC)C1c1cccc([N+](=O)[O-])c1 (centres unmarked) [NITRENDIPINE, reference compound] | 3.13 | 0.11 | 0.089 | 0.103 | 0.143 | 0.309 | 0.403 | 0.481 |  |  |  |  |
| CC(=O)O[C@]1(C(C)=O)CC[C@H]2[C@@H]3C=C(Cl)C4=CC(=O)CC[C@]4(C)[C@H]3CC[C@@]21C [CHLORMADINONE ACETATE, reference compound] | 12.5 | 0.193 | 0.078 | 0.088 | 0.112 | 0.11 | 0.2 | 0.296 |  |  |  |  |
| C=C1C(=O)OC2CC1C(OC(C)=O)C/C(C)=C/CC/C(C)=C/CC[C@]2(C)O (some centres unmarked) [CRASSIN ACETATE] | 12.5 | 0.084 | 0.068 | 0.075 | 0.099 | 0.107 | 0.324 | 0.443 |  |  |  |  |
| COc1ccc(-c2cc(=O)c3ccccc3o2)cc1 [4′-METHOXYFLAVONE] | 1.56 | 0.111 | 0.077 | 0.136 | 0.474 | 0.567 | 0.556 | 0.557 |  |  |  |  |
| CCOC(=O)N1CCC(=C2c3ccc(Cl)cc3CCc3cccnc32)CC1 [LORATADINE, reference compound] | 25 |  |  |  |  |  |  |  |  |  |  |  |
| FUSIDIC ACID [reference compound] |  | 0.095 | 0.081 | 0.084 | 0.107 | 0.137 | 0.296 | 0.52 |  |  |  | 6.25 |
| COC(=O)C[C@H]1C(C)(C)C(=O)[C@@H]2CC3C4=CC(=O)O[C@@H](c5ccoc5)[C@]4(C)CCC3[C@]1(C)C2=O (some centres unmarked) [CARAPIN] |  |  |  |  |  |  |  |  | 0.22 | 0.357 | 0.5 |  |
| C=CCCCCCCCCCCCC(O)CC(O)CO (centres unmarked) [AVOCADENE] | 6.25 | 0.097 | 0.074 | 0.09 | 0.108 | 0.134 | 0.209 | 0.408 |  |  |  |  |
| CC(=O)c1cc(CC=C(C)C)c(O)c(CC=C(C)C)c1 | 25 | 0.085 | 0.077 | 0.082 | 0.108 | 0.096 | 0.112 | 0.195 |  |  |  |  |
| O=c1c2ccccc2oc2ccc(O)cc12 [2-HYDROXY- XANTHONE] |  |  |  |  |  |  |  |  | 0.107 | 0.257 | 0.571 |  |
| COc1ccc([C@@H](C)C(=O)c2ccc(O)cc2O)cc1 [ANGOLENSIN (R)] |  |  |  |  |  |  |  |  | 0.327 | 0.652 | 0.062 |  |
| C=C1C2CC[C@@]3(C)[C@H](c4ccoc4)OC(=O)C[C@]13O[C@H]1C[C@H](OC(C)=O)C(C)(C)[C@H](CC(=O)OC)[C@@]21C [3beta- ACETO[…] ACID, METHYL ESTER] | 1.56 | 0.129 | 0.096 | 0.133 | 0.374 | 0.538 | 0.571 | 0.553 |  |  |  |  |
| CC1(C)C(=O)C=C[C@@]2(C)C1=C(O)C(=O)[C@]1(C)[C@@H]2CC[C@@]2(C)[C@H](c3ccoc3)C[C@H]3O[C@]321 [CEDRELONE] | 1.56 | 0.221 | 0.124 | 0.264 | 0.49 | 0.532 | 0.541 | 0.496 |  |  |  |  |
| CC(CCC(=O)O)[C@H]1CCC2C3CC[C@H]4C[C@H](O)CC[C@]4(C)C3C[C@H](O)[C@@]21C (some centres unmarked) [DEOXY- CHOLIC ACID, reference compound] |  |  |  |  |  |  |  |  | 0.233 | 0.481 | 0.133 |  |
| CC1(C)CC2C1CCC1(CBr)CC[C@H]3C(CC(=O)O)C(=O)OC23C1 (some centres unmarked) [BROMO-3-HYDROXY- 4-(SUCCIN-2-YL)- CARYOLANE gamma- LACTONE] | 6.25 | 0.091 | 0.079 | 0.091 | 0.101 | 0.139 | 0.245 | 0.417 |  |  |  |  |
| CCOc1cccc(C(=O)c2ccc(O)c(O)c2O)c1 [3,4-DIDESMETHYL-5- DESHYDROXY-3'- ETHOXYSCLEROIN] | 6.25 | 0.094 | 0.075 | 0.091 | 0.108 | 0.143 | 0.185 | 0.396 |  |  |  |  |
| CC(=O)O[C@@H]1CC2C(C)(C)C(=O)C=C[C@]2(C)C2CC[C@]3(C)C(=CC(=O)O[C@H]3c3ccoc3)[C@@]21C (some centres unmarked) [DEOXY- GEDUNIN] |  |  |  |  |  |  |  |  | 0.092 | 0.141 | 0.328 |  |
| COc1ccc(/C=C/c2cc(O)cc(O)c2)cc1 [RESVERA- TROL 4′- METHYL ETHER] |  |  |  |  |  |  |  |  | 0.08 | 0.103 | 0.331 |  |
| CNC(=O)Oc1cccc2c1OC(C)(C)C2 [CARBO- FURAN] |  |  |  |  |  |  |  |  | 0.176 | 0.264 | 0.239 |  |
| C=CCC1(C(C)CCC)C(=O)N=C([S-])NC1=O.[Na+] (centres unmarked) [THIAMYLAL SODIUM, reference compound] | 12.5 | 0.089 | 0.071 | 0.089 | 0.101 | 0.103 | 0.162 | 0.209 |  |  |  |  |
| COC(=O)C[C@H]1C(C)(C)[C@@H](OC(C)=O)[C@@H]2CC3C(CC[C@]4(C)C3CC(=O)O[C@H]4c3ccoc3)[C@]1(C)C2=O (some centres unmarked) [DIHYDRO- FISSINOLIDE] |  |  |  |  |  |  |  |  | 0.079 | 0.085 | 0.308 |  |
| CC(C)C1=CC2=CCC3[C@](C)(CCC[C@]3(C)C(=O)O)C2CC1 (some centres unmarked) [ABIETIC ACID] | 3.13 | 0.107 | 0.079 | 0.1 | 0.165 | 0.173 | 0.528 | 0.61 |  |  |  |  |
| COC(=O)C[C@H]1C(C)(C)C2(O)OC34CC2C(=O)[C@]1(C)C3CC[C@]1(C)C4=CC(=O)O[C@H]1c1ccoc1 (stereo partly drawn) [8beta- HYDROXY- CARAPIN, 3,8- HEMIACETAL] |  |  |  |  |  |  |  |  | 0.151 | 0.383 | 0.486 |  |
| COc1ccccc1-c1cc(=O)c2c(OC)cccc2o1 [5,2′- DIMETHOXY- FLAVONE] |  |  |  |  |  |  |  |  | 0.088 | 0.256 | 0.383 |  |
